Assay results from US5401739A, “Benzothiadiazine derivatives” (Taiho Pharmaceutical Co. Ltd., priority 1991, dated 1995).
Blank lines part the entries; values can stand above or below the molecule they belong to.

Legend:
[1] = system: gastric acid secretion; experiment: Inhibitory activity on gastric acid secretion (pylorus ligation, Pharmacological Test 1); assay type: in vivo, Male Wistar rats
Protocol: Inhibitory activity on gastric acid secretion:
(§1) Male Wistar rats (weighing 172 to 200 g) were divided into groups, 7 to 8 rats in each group. The animals were fasted for 24 hours. Under ether anesthesia, the abdomen was incised and the pylorus was ligated according to the method of Shay et al. [Gastroenterology, 1, 420 (1963)]. The animals were sacrificed 4 hours later, and the stomach was removed to collect gastric juice, which was then centrifuged (3000 r.p.m., 10 minutes). The volume of gastric juice and the acidity were measured. The compound to be tested was dissolved in water, and the solution was intraduodenally given to animals at varying doses immediately after the ligation of the pylorus.

[2] = system: hydrochloric acid induced-ulcer; experiment: Effect on hydrochloric acid induced-ulcer (Pharmacological Test 2); assay type: in vivo, Male Wistar rats; settings: 1 h before 0.6N HCl
Protocol: Effect on hydrochloric acid induced-ulcer:
(§2) Male Wistar rats (weighing 156 to 189 g) were divided into groups, 5 to 8 rats in each group. The animals were fasted for 24 hours, and 5 ml/kg of 0.6N hydrochloric acid was given orally. The animals were sacrificed 1 hour later. The stomach was removed, and 1% formalin was injected into the removed stomach to fix the stomach. The stomach was then incised open along the greater curvature. The length (mm) of gastric lesions was measured, summed and used as an ulcer index. The compound to be tested was dissolved in water, and the solution was orally given to animals at varying doses 1 hour before the injection of hydrochloric acid.

[3] = system: gastric acid secretion; experiment: Inhibitory activity on gastric acid secretion, comparison with Compound A (Pharmacological Test 3); assay type: in vivo, Male Wistar rats; settings: 30 mg/kg; for Percent inhibition on gastric acid secretion: Table 7, intraduodenal as in Test 1
Protocol: as §1
Inhibitory activity on gastric acid secretion was measured in the same manner as in Pharmacological Test 1 with use of Compound 2 below as the present compound and, for comparison, Compound A below of Example 37c in JP-A-116277/1984.

[4] = system: hydrochloric acid induced-ulcer; experiment: Effect on hydrochloric acid induced-ulcer, comparison with Compound A (Pharmacological Test 4); assay type: in vivo, Male Wistar rats; settings: 30 mg/kg; for Percent inhibition of effect on hydrochloric acid induced-ulcer: Table 8, oral as in Test 2
Protocol: as §2

[5] = Hygroscopicity (remark in Table 1); assay type: physicochemical
[6] = Table 3, 10 mg/kg intraduodenal, 4 h, control 2.5 ± 0.5
[7] = Table 3, 10 mg/kg intraduodenal, 4 h, control 65.2 ± 10.7
[8] = Table 3, 10 mg/kg intraduodenal, 4 h, control 162.3 ± 41.6

Structure (SMILES): COc1ccc(CN(CCCOc2cccc(CN3CCCCC3)c2)C2=NS(=O)(=O)c3ccccc3N2C)cc1 [Compound 2, 3-[N-[3-[3-(piperidinomethyl)phenoxy]propyl]-4'-methoxybenzylamino]-4-methyl-1,2,4-benzothiadiazine-1,1-dioxide]
Acidity ([1]; Table 2, 3 mg/kg intraduodenal, 4 h, control 78.4 ± 12.0): 64.8 ± 15.1 μ Eq/ml
Total acid output ([1]; Table 2, 3 mg/kg intraduodenal, 4 h, control 391.6 ± 161.6): 247.8 ± 96.9 μ Eq
Volume of gastric juice ([1]; Table 2, 3 mg/kg intraduodenal, 4 h after pylorus ligation, control 4.8 ± 1.5): 3.7 ± 0.9 mL
Volume of gastric juice ([1]; Table 2, 10 mg/kg intraduodenal, 4 h, control 4.8 ± 1.5): 3.4 ± 1.8 mL
Acidity ([1]; Table 2, 10 mg/kg intraduodenal, 4 h, control 78.4 ± 12.0): 54.9 ± 16.1 μ Eq/ml
Total acid output ([1]; Table 2, 10 mg/kg intraduodenal, 4 h, control 391.6 ± 161.6): 205.9 ± 165.0 μ Eq
Volume of gastric juice ([1]; Table 2, 30 mg/kg intraduodenal, 4 h, control 4.8 ± 1.5): 2.4 ± 1.4 mL
Acidity ([1]; Table 2, 30 mg/kg intraduodenal, 4 h, control 78.4 ± 12.0): 30.9 ± 16.7 μ Eq/ml
Total acid output ([1]; Table 2, 30 mg/kg intraduodenal, 4 h, control 391.6 ± 161.6): 85.3 ± 92.7 μ Eq
Percent inhibition (ulcer index) ([2]; Table 4, 3 mg/kg oral): 33.6%
Ulcer index ([2]; Table 4, 3 mg/kg oral, control 72.7 ± 23.7): 48.3 ± 17.8 mm
Percent inhibition (ulcer index) ([2]; Table 4, 10 mg/kg oral): 55.8%
Ulcer index ([2]; Table 4, 10 mg/kg oral, control 72.7 ± 23.7): 32.1 ± 24.9 mm
Percent inhibition (ulcer index) ([2]; Table 4, 30 mg/kg oral): 85.0%
Ulcer index ([2]; Table 4, 30 mg/kg oral, control 72.7 ± 23.7): 10.9 ± 17.2 mm
Percent inhibition (ulcer index) ([2]; Table 4, 100 mg/kg oral): 94.5%
Ulcer index ([2]; Table 4, 100 mg/kg oral, control 72.7 ± 23.7): 4.0 ± 6.1 mm
Percent inhibition on gastric acid secretion [3]: 95.1%
inhibitory activity on gastric acid secretion, compared with Compound A ([3]; in words, vs Compound A): almost equal to Compound A
Percent inhibition of effect on hydrochloric acid induced-ulcer [4]: 86.9%
effect on hydrochloric acid induced-ulcer, compared with Compound A ([4]; in words, vs Compound A): extremely excellent than Compound A

Structure (SMILES): CN1C(NC/C=C\COc2cccc(CN3CCCCC3)c2)=NS(=O)(=O)c2ccccc21 [Compound 22, 3-[N-[4-[3-(piperidinomethyl)phenoxy]-(cis) 2-butenyl]amino]-4-methyl-1,2,4-benzothiadiazine-1,1-dioxide]
Volume of gastric juice ([1]; Table 3, 3 mg/kg intraduodenal, 4 h, control 2.5 ± 0.5): 2.0 ± 0.6 mL
Acidity ([1]; Table 3, 3 mg/kg intraduodenal, 4 h, control 65.2 ± 10.7): 8.6 ± 8.2 μ Eq/ml
Total acid output ([1]; Table 3, 3 mg/kg intraduodenal, 4 h, control 162.3 ± 41.6): 15.5 ± 9.6 μ Eq
Volume of gastric juice [1, 6]: 2.3 ± 1.0 mL
Acidity [1, 7]: 2.1 ± 3.9 μ Eq/ml
Total acid output [1, 8]: 4.5 ± 9.4 μ Eq
Percent inhibition (ulcer index) ([2]; Table 5, 10 mg/kg oral): 16.5%
Ulcer index ([2]; Table 5, 10 mg/kg oral, control 61.2 ± 25.4): 51.1 ± 20.4 mm
Percent inhibition (ulcer index) ([2]; Table 5, 30 mg/kg oral): 35.6%
Ulcer index ([2]; Table 5, 30 mg/kg oral, control 61.2 ± 25.4): 39.4 ± 13.2 mm
Percent inhibition (ulcer index) ([2]; Table 5, 100 mg/kg oral): 48.4%
Ulcer index ([2]; Table 5, 100 mg/kg oral, control 61.2 ± 25.4): 31.6 ± 5.0 mm

Structure (SMILES): CCCCN1C(NC/C=C\COc2cccc(CN3CCCCC3)c2)=NS(=O)(=O)c2ccccc21 [Compound 28]
Volume of gastric juice [1, 6]: 2.2 ± 0.8 mL
Acidity [1, 7]: 59.2 ± 12.4 μ Eq/ml
Total acid output [1, 8]: 133.3 ± 69.0 μ Eq
Volume of gastric juice ([1]; Table 3, 30 mg/kg intraduodenal, 4 h, control 2.5 ± 0.5): 1.5 ± 0.5 mL
Acidity ([1]; Table 3, 30 mg/kg intraduodenal, 4 h, control 65.2 ± 10.7): 32.0 ± 14.4 μ Eq/ml
Total acid output ([1]; Table 3, 30 mg/kg intraduodenal, 4 h, control 162.3 ± 41.6): 53.6 ± 32.9 μ Eq
Volume of gastric juice ([1]; Table 3, 100 mg/kg intraduodenal, 4 h, control 2.5 ± 0.5): 1.1 ± 0.5 mL
Acidity ([1]; Table 3, 100 mg/kg intraduodenal, 4 h, control 65.2 ± 10.7): 4.9 ± 8.2 μ Eq/ml
Total acid output ([1]; Table 3, 100 mg/kg intraduodenal, 4 h, control 162.3 ± 41.6): 4.6 ± 7.1 μ Eq
Percent inhibition (ulcer index) ([2]; Table 6, 10 mg/kg oral): 22.6%
Ulcer index ([2]; Table 6, 10 mg/kg oral, control 150.0 ± 35.2): 116.1 ± 34.9 mm
Percent inhibition (ulcer index) ([2]; Table 6, 30 mg/kg oral): 62.8%
Ulcer index ([2]; Table 6, 30 mg/kg oral, control 150.0 ± 35.2): 55.8 ± 32.4 mm
Percent inhibition (ulcer index) ([2]; Table 6, 100 mg/kg oral): 96.6%
Ulcer index ([2]; Table 6, 100 mg/kg oral, control 150.0 ± 35.2): 5.1 ± 4.1 mm

Hygroscopicity [5]: Hygroscopic
Structure (SMILES): COc1ccc2c(c1)N(C)C(NC/C=C\COc1cccc(CN3CCCCC3)c1)=NS2(=O)=O [Compound 29, 3-[N-[4-[3-(piperidinomethyl)phenoxy]-(cis) 2-butenyl]amino]-4-methyl-6-methoxy-1,2,4-benzothiadiazine-1,1-dioxide]

Structure (SMILES): CN1C(NCCCOc2cccc(CN3CCCCC3)c2)=NS(=O)(=O)c2ccccc21 [Compound A, reference compound]
Percent inhibition on gastric acid secretion [3]: 96.2%
Percent inhibition of effect on hydrochloric acid induced-ulcer [4]: 59.4%
